Test system: T1, KERUS
T1 construct: native extracellular enzyme purified from culture supernatant; mature form 275 aa of a 383-aa pre-pro-enzyme (pre 29 aa, pro 79 aa removed)
Assay: esterase activity, absorbance at […] nm, Lineweaver-Burk
Type: biochemical, Brevibacillus brevis
Conditions: pH 8, 40°C, 10% (v/v) DMSO, 1% (v/v) Triton X-100

Km: 655 ± 33 µM
Compound: CCOC(=O)[C@H](CCCN=C(N)N)NC(=O)c1ccccc1 [BAEE]

Reference: paper PMC3795758, “Biochemical and Molecular Characterization of a Serine Keratinase from Brevibacillus brevis US575 with Promising Keratin-Biodegradation and Hide-Dehairing Activities” (PLoS ONE, 2013)
